According to US20110319464A1, “METHODS FOR TREATING BENIGN PROSTATIC HYPERPLASIA” (KISSEI PHARMACEUTICAL CO., LTD., priority 2007, published 2011):

Tested on: symptoms of BPH
Assay: Study C: 4 mg or 8 mg Silodosin Once Daily (KMD-3213-US021-99), U.S. Phase 2 Study
Format: in vivo, human
Conditions: for Incidence of Adverse Events: Dizziness / Incidence of Adverse Events: Orthostatic Hypotension / Incidence of Adverse Events: Syncope / Mean Change From Baseline (CFB) in Maximum Flow Rate / IPSS/AUASS baseline value / Maximum Flow Rate baseline value / Mean Change From Baseline (CFB) in IPSS/AUASS: Study C; for IPSS/AUASS baseline value / Maximum Flow Rate baseline value: Week 0
Description: The 6-week stable dosing period was preceded by a 4-week placebo lead-in and a 2-week titration period. […] Male patients were selected who were at least 45 years of age with signs and symptoms of BPH (AUASS of 13 and maximum urine flow rate between 4 and 15 mL/sec). In addition, the results for IPSS/AUASS for studies A, B, D and E are illustrated in FIGS. 3 to 6, respectively, and the results for Qmax for studies A, B, D and E are illustrated in FIGS. 7 to 10, respectively.

[1] = 4 mg once daily, Visit 3 (Day 29), Post-dose (2-6 hr), LOCF
[2] = 4 mg once daily, Visit 4 (Day 36), LOCF
[3] = 4 mg once daily, Visit 4 (Day 36), Post-dose (2-6 hr), LOCF
[4] = 4 mg once daily, Visit 5 (Day 43), LOCF
[5] = 4 mg once daily, Visit 5 (Day 43), Post-dose (2-6 hr), LOCF
[6] = 4 mg once daily, Visit 6 (Day 64), LOCF
[7] = 4 mg once daily, Visit 6 (Day 64), Post-dose (2-6 hr), LOCF
[8] = 4 mg once daily, Visit 7 (EOS, Day 84), LOCF
[9] = 4 mg once daily, Visit 7 (EOS, Day 84), Post-dose (2-6 hr), LOCF
[10] = 8 mg once daily, Visit 3 (Day 29), Post-dose (2-6 hr), LOCF
[11] = 8 mg once daily, Visit 4 (Day 36), LOCF
[12] = 8 mg once daily, Visit 4 (Day 36), Post-dose (2-6 hr), LOCF
[13] = 8 mg once daily, Visit 5 (Day 43), LOCF
[14] = 8 mg once daily, Visit 5 (Day 43), Post-dose (2-6 hr), LOCF
[15] = 8 mg once daily, Visit 6 (Day 64), LOCF
[16] = 8 mg once daily, Visit 6 (Day 64), Post-dose (2-6 hr), LOCF
[17] = 8 mg once daily, Visit 7 (EOS, Day 84), LOCF
[18] = 8 mg once daily, Visit 7 (EOS, Day 84), Post-dose (2-6 hr), LOCF

For `C[C@H](Cc1cc2c(c(C(N)=O)c1)N(CCCO)CC2)NCCOc1ccccc1OCC(F)(F)F` [Silodosin], the “Q-max, Mean (SD)” value [1] was 12.2 (4.4) ml/sec, the “Q-max, Mean change (SD)” value [1] was 2.5 (3.6) ml/sec and the “Q-max, Mean (SD)” value (4 mg once daily, Visit 3 (baseline, Day 29), Pre-dose, LOCF) was 9.7 (3.0) ml/sec. For the same compound, the “Total IPSS/AUASS Score, Mean (SD)” value (4 mg once daily, Visit 3 (baseline, Day 29), modified intent to treat (LOCF)) was 19.7 (5.1), the “Total IPSS/AUASS Score, Mean (SD)” value [2] was 17.3 (5.6) and the “Total IPSS/AUASS Score, Mean change (SD)” value [2] was −2.4 (4.0). The “Q-max, Mean (SD)” value [3] was 12.4 (4.7) ml/sec, the “Q-max, Mean change (SD)” value [3] was 2.7 (4.4) ml/sec and the “Total IPSS/AUASS Score, Mean (SD)” value [4] was 15.5 (5.6). The “Total IPSS/AUASS Score, Mean change (SD)” value [4] was −4.2 (4.5), the “Q-max, Mean (SD)” value [5] was 12.2 (4.7) ml/sec and the “Q-max, Mean change (SD)” value [5] was 2.6 (4.2) ml/sec. For the same compound, the “Total IPSS/AUASS Score, Mean (SD)” value [6] was 14.6 (6.0), the “Total IPSS/AUASS Score, Mean change (SD)” value [6] was −5.1 (5.1) and the “Q-max, Mean (SD)” value [7] was 12.0 (4.3) ml/sec. The “Q-max, Mean change (SD)” value [7] was 2.3 (4.1) ml/sec, the “Total IPSS/AUASS Score, Mean (SD)” value [8] was 13.9 (6.0) and the “Total IPSS/AUASS Score, Mean change (SD)” value [8] was −5.7 (5.5). For the same compound, the “Q-max, Mean (SD)” value [9] was 12.6 (4.4) ml/sec, the “Q-max, Mean change (SD)” value [9] was 2.9 (4.0) ml/sec and the “Q-max, Mean (SD)” value [10] was 11.7 (3.5) ml/sec. The “Q-max, Mean change (SD)” value [10] was 2.0 (3.1) ml/sec, the “Q-max, Mean (SD)” value (8 mg once daily, Visit 3 (baseline, Day 29), Pre-dose, LOCF) was 9.6 (2.7) ml/sec and the “Total IPSS/AUASS Score, Mean (SD)” value (8 mg once daily, Visit 3 (baseline, Day 29), modified intent to treat (LOCF)) was 20.8 (5.3). For the same compound, the “Total IPSS/AUASS Score, Mean (SD)” value [11] was 18.0 (6.0), the “Total IPSS/AUASS Score, Mean change (SD)” value [11] was −2.7 (3.7) and the “Q-max, Mean (SD)” value [12] was 12.5 (4.8) ml/sec. For the same compound, the “Q-max, Mean change (SD)” value [12] was 2.9 (4.4) ml/sec, the “Total IPSS/AUASS Score, Mean (SD)” value [13] was 16.5 (6.0) and the “Total IPSS/AUASS Score, Mean change (SD)” value [13] was −4.3 (3.9). The “Q-max, Mean (SD)” value [14] was 12.5 (5.7) ml/sec, the “Q-max, Mean change (SD)” value [14] was 2.9 (5.4) ml/sec and the “Total IPSS/AUASS Score, Mean (SD)” value [15] was 15.9 (6.4). For the same compound, the “Total IPSS/AUASS Score, Mean change (SD)” value [15] was −4.9 (4.6), the “Q-max, Mean (SD)” value [16] was 12.9 (5.6) ml/sec and the “Q-max, Mean change (SD)” value [16] was 3.2 (5.5) ml/sec. For the same compound, the “Total IPSS/AUASS Score, Mean (SD)” value [17] was 14.0 (6.5), the “Total IPSS/AUASS Score, Mean change (SD)” value [17] was −6.8 (5.8) and the “Q-max, Mean (SD)” value [18] was 13.0 (5.8) ml/sec. For the same compound, the “Q-max, Mean change (SD)” value [18] was 3.5 (5.7) ml/sec, the “Incidence of Adverse Events: Dizziness” value (4 mg once daily) was 9.1 % of patients and the “Incidence of Adverse Events: Orthostatic Hypotension” value (4 mg once daily) was 4.5 % of patients. The “Incidence of Adverse Events: Syncope” value (4 mg once daily) was 0 % of patients, the “Mean Change From Baseline (CFB) in Maximum Flow Rate” value (4 mg once daily, 2-6 hrs after 1st dose) was 2.5 mL/s and the IPSS/AUASS baseline value (4 mg once daily) was 19.7. The “Maximum Flow Rate baseline value” (4 mg once daily) was 9.7 mL/s, the “Mean Change From Baseline (CFB) in IPSS/AUASS” value (4 mg once daily, Week 1) was −2.4 and the “Mean Change From Baseline (CFB) in Maximum Flow Rate” value (4 mg once daily, Week 1) was 2.7 mL/s. For the same compound, the “Mean Change From Baseline (CFB) in IPSS/AUASS” value (4 mg once daily, Week 2) was −4.2, the “Mean Change From Baseline (CFB) in Maximum Flow Rate” value (4 mg once daily, Week 2) was 2.6 mL/s and the “Mean Change From Baseline (CFB) in IPSS/AUASS” value (4 mg once daily, Week 5) was −5.1. For the same compound, the “Mean Change From Baseline (CFB) in Maximum Flow Rate” value (4 mg once daily, Week 5) was 2.3 mL/s, the “Mean Change From Baseline (CFB) in IPSS/AUASS” value (4 mg once daily, Week 8) was −5.7 and the “Mean Change From Baseline (CFB) in Maximum Flow Rate” value (4 mg once daily, Week 8) was 2.9 mL/s. The “Incidence of Adverse Events: Dizziness” value (8 mg once daily) was 5.6 % of patients, the “Incidence of Adverse Events: Orthostatic Hypotension” value (8 mg once daily) was 3.3 % of patients and the “Incidence of Adverse Events: Syncope” value (8 mg once daily) was 0 % of patients. The “Mean Change From Baseline (CFB) in Maximum Flow Rate” value (8 mg once daily, 2-6 hrs after 1st dose) was 2.0 mL/s, the IPSS/AUASS baseline value (8 mg once daily) was 20.8 and the “Maximum Flow Rate baseline value” (8 mg once daily) was 9.6 mL/s. For the same compound, the “Mean Change From Baseline (CFB) in IPSS/AUASS” value (8 mg once daily, Week 1) was −2.7, the “Mean Change From Baseline (CFB) in Maximum Flow Rate” value (8 mg once daily, Week 1) was 2.9 mL/s and the “Mean Change From Baseline (CFB) in IPSS/AUASS” value (8 mg once daily, Week 2) was −4.3. For the same compound, the “Mean Change From Baseline (CFB) in Maximum Flow Rate” value (8 mg once daily, Week 2) was 2.9 mL/s, the “Mean Change From Baseline (CFB) in IPSS/AUASS” value (8 mg once daily, Week 5) was −4.9 and the “Mean Change From Baseline (CFB) in Maximum Flow Rate” value (8 mg once daily, Week 5) was 3.2 mL/s. The “Mean Change From Baseline (CFB) in IPSS/AUASS” value (8 mg once daily, Week 8) was −6.8 and the “Mean Change From Baseline (CFB) in Maximum Flow Rate” value (8 mg once daily, Week 8) was 3.4 mL/s.
